Key:
rTg4510 mice [1] = experiment: Histology for neuroinflammation markers (Iba1, CD68) in rTg4510 mice; type: in vivo, mouse
Excerpt: (§1) In Vivo Efficacy of the Compounds of the Present Invention In Vivo Study Design for the Testing of Example 12 and Example 45
Double transgenic rTg4510 mice express the full-length human Tau carrying the P301L mutation (Tau4R0N-P301L) under the control of the tet-inducible CaMKII promoter (Ramsden et al., J. Neurosci., 2005⋅25(46):10637-10647). Single transgenic mice expressing only the tetracycline-controlled transactivator (tTA) were used as genotype controls. The study comprised 4 treatment groups (n=15 female for tTa group and n=11 female mice/group for the treatment) with the following group distribution (see Table 9). Compounds or vehicle control were administered once daily or bi-daily by gavage for 1 month starting at the age of 5 months. All mice received 200 ppm doxycycline in chow for 3 weeks plus a loading dose in drinking water for the first two days at 1.5 mg/mL in 4% sucrose. […]
After perfusion, brains were then removed and hemi-sagitally hemisected. […] A systematic random set of sections from seven sagittal levels per animal was used to quantify the Iba1 and CD68 immunoreactivity while 1 section/animal from the medio-lateral level 4 were used to assess Tau misfolding (MC1 monoclonal antibody). […] Sections were imaged using a digital slide scanner (Panoramic 250 Flash, 3D Histech Ltd.) and quantified using the image visualization software Visiopharm. […]

rTg4510 mice [2] = experiment: Histology for misfolded Tau (MC1) in rTg4510 mice; type: in vivo, mouse; details: 30 mg/kg bi-daily by gavage for 1 month, frontal cortex (FIG. 2)
Excerpt: as §1
Double transgenic rTg4510 mice express the full-length human Tau carrying the P301L mutation (Tau4R0N-P301L) under the control of the tet-inducible CaMKII promoter (Ramsden et al., J. Neurosci., 2005⋅25(46):10637-10647). Single transgenic mice expressing only the tetracycline-controlled transactivator (tTA) were used as genotype controls. The study comprised 4 treatment groups (n=15 female for tTa group and n=11 female mice/group for the treatment) with the following group distribution (see Table 9). […]
After perfusion, brains were then removed and hemi-sagitally hemisected. […] A systematic random set of sections from seven sagittal levels per animal was used to quantify the Iba1 and CD68 immunoreactivity while 1 section/animal from the medio-lateral level 4 were used to assess Tau misfolding (MC1 monoclonal antibody). […] Sections were imaged using a digital slide scanner (Panoramic 250 Flash, 3D Histech Ltd.) and quantified using the image visualization software Visiopharm.
MC1 staining was analyzed in the frontal cortex in the upper cortical layers. […] This ROI was analyzed in Visiopharm using a predetermined threshold for MC1 staining with a pixel intensity threshold above 30 (8 bits pictures) and excluding all detected objects smaller than 20 μm^2. […]

Fc1ccc2[nH]c3c(c2c1)CN(c1ccc2nc(N4CCOCC4)oc2c1)CC3 [Example 12]
microgliosis measured as Iba1 immunoreactive area (rTg4510 mice [1]; 30 mg/kg bi-daily by gavage for 1 month (FIG. 3A)): decreased microgliosis | activated phagocytic microglial cells positive for CD68 (rTg4510 mice [1]; 30 mg/kg bi-daily by gavage for 1 month (FIG. 3B)): decreased highy activated phagocytic migroglial cells | MC1 positive area (misfolded Tau) (rTg4510 mice [2]): decreased the MC1 positive area

From patent US10633383B2, “Compounds for the treatment, alleviation or prevention of disorders associated with Tau aggregates” (AC Immune SA, priority 2018, dated 2020)
